Data published in patent publication US20200360391A1, “Medicinal Composition for Treating Intractable Heart Disease” (Osaka University, priority 2016, published 2020).

What was measured:
[1] = tested on: spontaneous dilated cardiomyopathy (J2N-k) hamster model; assay: Long-term (36 weeks) administration in J2N-k hamster model: cardiac function, survival rate; assay type: in vivo; conditions: 3.0 mg/kg
Method: ONO-1301 and (K) candesartan, which is ARB, were each individually orally administered to a δ-glycan-deficient spontaneous dilated cardiomyopathy (J2N-k) hamster model twice daily repeatedly for 36 weeks, after the onset of pathological condition (20 weeks old); and changes in cardiac function and survival rates in long-term administration were compared for evaluation. Specifically, echocardiographic measurement was performed after the onset of pathological condition (20 weeks old); the animals were grouped evenly based on the ejection fractions (EF values) and the body weights (Table 15), and each test substance was individually administered for 36 weeks.
The test was performed in the same manner as described in the section “1. Investigation of effects in spontaneous dilated cardiomyopathy (J2N-k) hamster model” above.
ONO-1301 was administered at 3 mg/kg twice per day. Candesartan was administered at 3 mg/kg once per day, and only vehicle was administered at the second administration. To the control group, vehicle (0.5% CMC-Na) was administered twice daily.

[2] = tested on: rats; conditions: cited from earlier work
[3] = tested on: dogs; conditions: 6-month toxicity study in dogs; cited from earlier work
[4] = tested on: spontaneously hypertensive rats (SHR); conditions: oral 0.1, 1 and 10 mg/kg for 2 weeks; cited from earlier work
[5] = tested on: spontaneous dilated cardiomyopathy (J2N-k) hamster model; assay: Spontaneous dilated cardiomyopathy (J2N-k) hamster model, 8-week administration from 20 weeks of age (Tests 1-3): echocardiography, body weight
How it was run: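 Male J2N-k δ-glycan-deficient hamsters (delivered at 18 weeks; 2-week acclimation) were dosed by oral gavage twice daily for 8 weeks in 0.5% CMC-Na (G in distilled water; 5 mL/kg) at human-equivalent doses, e.g. cilostazol 1.7 mg/kg. Camostat PLGA preparation was given 10 mg/kg s.c. every 4 weeks. Echocardiographic EF/FS changes from baseline were assessed at 4 and 8 weeks versus vehicle.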

[6] = tested on: mice with ethionine-induced pancreatitis; conditions: oral, twice daily; cited from earlier work
[7] = tested on: rats; conditions: rat, in vivo, sc; cited from earlier work
[8] = tested on: rats; assay: Repeated oral administration toxicity study in rats (dose-setting basis); conditions: mg/kg twice per day, oral preparation
Source text: The dose-setting basis for the doses of the test substances used in pharmacological tests is as described below.

[9] = tested on: rat coronary artery complete ischemia model; assay: Model of ischemia (MI) by rat coronary artery complete ligation (Tests 1 and 2): echocardiography, body weight; conditions: for value of change in E.F. compared with E.F. on Day 1 / value of change in F.S. compared with F.S. on Day 1: B-MS 100, C-MS 50, F-MS 30 mg/kg s.c. single injection
[10] = tested on: lauric acid-induced rat hind limb circulatory disorder model; conditions: oral, 7 consecutive days; cited from earlier work
[11] = MI Test 2, 14 Day, B 150, G 5, I 30, C 10 mg/kg p.o. b.i.d., mean ± S.D.
[12] = MI Test 2, 29 Day, B 150, G 5, I 30, C 10 mg/kg p.o. b.i.d., mean ± S.D.
[13] = Test 2, p.o. b.i.d., NOAEL-based dose
[14] = MI Test 1, NOAEL doses, 7 Day, mean ± S.D.
[15] = MI Test 1, NOAEL doses, 14 Day, mean ± S.D.
[16] = MI Test 1, NOAEL doses, 29 Day, mean ± S.D.

## CCOc1nc2cccc(C(=O)OC(C)OC(=O)OC3CCCCC3)c2n1Cc1ccc(-c2ccccc2-c2nn[nH]n2)cc1 (centres unmarked) [candesartan, Candesartan cilexetil]
[1]
  EF compared with control group: no longer significant in Week 30 and Week 36
  FS% compared with control group: no longer significant in Week 36
  Survival rate: rapid decrease in the survival rate was observed from 29 weeks
[2]; rats, 6 months
  No-observed-adverse-effect level: 10 mg/kg
[3]
  No-observed-adverse-effect level: 20 mg/kg
[4]
  Blood pressure: reduced blood pressure
  Plasma renin concentration: increased the plasma renin concentration in a dose-dependent manner

## CN(C)C(=O)COC(=O)Cc1ccc(OC(=O)c2ccc(NC(=N)N)cc2)cc1 [Compound B, Camostat mesilate]
[5]; Test 1, p.o. b.i.d.
  LVIDd 4 W: 6.8 mm
  LVIDd 8 W: 7.3 mm
  LVIDs 4 W: 5.6 mm
  LVIDs 8 W: 6.1 mm
[5]; Test 1, p.o. b.i.d., listed as camostat
  LVIDs 8 W: significantly lower
[5]; hamster, in vivo, po
  Body weight 1 W: 114.4 g
  Body weight 2 W: 117.7 g
  Body weight 3 W: 119.0 g
  Body weight 4 W: 121.3 g
  Body weight 5 W: 121.9 g
  Body weight 6 W: 122.2 g
[5]; mg/kg twice per day, oral preparation
  Minimal effective dose (screening 2): 5 mg/kg
[6]
  Dose suppressing increase in protease activity in the pancreas: 300 mg/kg
[7]
  LD50: 1329 mg/kg
[8]
  Maximum no-observed-adverse-effect level (screening 1): 150 mg/kg
[9]; MI Test 2, Day 14 and Day 29
  EF actual measured value and/or amount of change compared with control: significantly higher
[9]; MI Test 2, oral b.i.d. 4 weeks or single subcutaneous administration
  Values of cardiac function (EF, FS %) compared with control: significantly higher
[9]; MI Test 2, 1 Day, B 150, G 5, I 30, C 10 mg/kg p.o. b.i.d., B MS 100, C MS 50, I MS 30 mg/kg s.c. single injection, mean
  Body weight: 243.5 g
[9]; MI Test 2, 7 Day, B 150, G 5, I 30, C 10 mg/kg p.o. b.i.d., B MS 100, C MS 50, I MS 30 mg/kg s.c. single injection, mean
  Body weight: 249.1 g
[9]; MI Test 2, 14 Day, B 150, G 5, I 30, C 10 mg/kg p.o. b.i.d., B MS 100, C MS 50, I MS 30 mg/kg s.c. single injection, mean
  Body weight: 262.4 g
[9]; [11]
  value of change in E.F. compared with E.F. on Day 1: <−4.2 ± 2.5> %
  value of change in F.S. compared with F.S. on Day 1: <−2.3 ± 5.3> %
[9]; MI Test 2, 21 Day, B 150, G 5, I 30, C 10 mg/kg p.o. b.i.d., B MS 100, C MS 50, I MS 30 mg/kg s.c. single injection, mean
  Body weight: 273.9 g
[9]; MI Test 2, 29 Day, B 150, G 5, I 30, C 10 mg/kg p.o. b.i.d., B MS 100, C MS 50, I MS 30 mg/kg s.c. single injection, mean
  Body weight: 293.5 g
[9]; [12]
  value of change in E.F. compared with E.F. on Day 1: <−7.3 ± 4.2> %
  value of change in F.S. compared with F.S. on Day 1: <−3.9 ± 2.2> %

## CC#CCC(C)[C@H](O)/C=C/[C@@H]1[C@H]2c3cccc(CCCC(=O)O)c3O[C@H]2C[C@H]1O (mixture of isomers) [Compound F, Beraprost sodium]
[5]; Test 2, at grouping
  Body weight 0 W: 119.9 g
[5]; Test 2, p.o. b.i.d.
  LVIDd 4 W: 7.1 mm
  LVIDd 8 W: 7.5 mm
  LVIDs 4 W: 5.9 mm
  LVIDs 8 W: 6.3 mm
[5]; [13]
  % FS 4 W: significantly higher
  % FS value of change at 4 W compared with 0 W: significantly higher
  Body weight 1 W: 120.8 g
  Body weight 2 W: 122.7 g
  Body weight 3 W: 124.9 g
  Body weight 4 W: 127.1 g
  Body weight 5 W: 128.2 g
  Body weight 6 W: 129.6 g
  Body weight 7 W: 129.9 g
  Body weight 8 W: 130.0 g
  EF 4 W: significantly higher
[2]; rats, 12 months
  No-observed-effect level: 0.01 mg/kg/day
[2]; repeated administration in rats, duration per compound
  Dose at which toxic findings were observed: ≥ 0.1 mg/kg/day
[10]
  Dose significantly ameliorating the disorder of the hind limbs: 300 µg/kg/day
[9]; MI Test 1, 28-day repeated oral administration b.i.d., NOAEL-based doses
  Action on left ventricular systolic function: suppression action on the deterioration of left ventricular systolic function
[9]; MI Test 1, NOAEL doses, 1 Day (grouping), mean ± S.D.
  Body weight: 230.4 ± 3.3 g
[9]; [14]
  % FS: value of change compared with the value on Day 1: 0%
  Body weight: 232.3 ± 10.0 g
  EF: value of change compared with the value on Day 1: 0%
[9]; [15]
  % FS: value of change compared with the value on Day 1: -2%
  Body weight: 252.6 ± 9.8 g
  EF: value of change compared with the value on Day 1: -3%
[9]; MI Test 1, NOAEL doses, 21 Day, mean ± S.D.
  Body weight: 272.9 ± 7.7 g
[9]; [16]
  % FS: value of change compared with the value on Day 1: -3%
  Body weight (g): 295.4 ± 8.6 (7) g
  EF: value of change compared with the value on Day 1: -6%
[9]; MI Test 1, until Day 29
  Body weight change compared with control group: Significant body weight gain suppression
